# Laboratory results as given in US20190282566A1, “USE OF FLIBANSERIN IN THE TREATMENT OF OBESITY” (Sprout Pharmaceuticals, Inc., priority 2005, published 2019).
# Legend:
# [1] = 13-week dietary admixture study in rats, body weight; assay type: in vivo
# Description: To test the efficacy of Flibanserin in the treatment of obesity groups of the rats per sex per group (gang-housed) received Flibnanserin at dosages of 0 (control), 100, 200, and 600 mg/kg/day via dietary admixture. The test compound was mixed with the food to obtain a 3% premix. This premix was prepared in week −1 and drug week 7 and was used to prepare the substance/food mixtures for all individual groups. The substance/food concentration was calculated using the mean daily food intake from the study week before. The substance/food mixture was made weekly for every dose group and stored under darkness in the animal room. The concentration, homogeneity and stability of the test substance in the food was checked during study week 2 with reanalysis one and four weeks later. One further check of concentration and homogeneity was performed in week 13. The body weight of each animal was determined and recorded once a week including the pretest acclimation period, in the morning on the same day of the week.
# The following tables presents the results of the above described experiments as absolute body weights at start of treatment (week −1) as well as in drug week 6 and 13, including percentage change compared to controls. (in parentheses).
# 5-HT1A receptor = target: T1, 5-HT1A receptor (Homo sapiens, UniProt P08908); conditions: cited from earlier work
# T1 sequence (P08908 1-422): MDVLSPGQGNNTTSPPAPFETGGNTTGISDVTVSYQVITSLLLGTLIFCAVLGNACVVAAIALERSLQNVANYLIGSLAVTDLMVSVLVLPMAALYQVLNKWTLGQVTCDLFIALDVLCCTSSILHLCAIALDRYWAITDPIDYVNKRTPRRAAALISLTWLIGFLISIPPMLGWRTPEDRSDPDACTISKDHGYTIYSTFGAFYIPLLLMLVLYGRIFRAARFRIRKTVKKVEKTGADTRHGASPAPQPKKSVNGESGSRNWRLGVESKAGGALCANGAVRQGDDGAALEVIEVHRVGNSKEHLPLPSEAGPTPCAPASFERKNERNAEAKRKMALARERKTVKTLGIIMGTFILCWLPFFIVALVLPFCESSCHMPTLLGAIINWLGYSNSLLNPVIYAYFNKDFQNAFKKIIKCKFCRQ
# 5-HT2-receptor family = conditions: cited from earlier work
# [2] = female rats, 100 mg/kg/day via diet, drug week 6
# [3] = female rats, 100 mg/kg/day via diet, drug week 13
# [4] = female rats, 100 mg/kg/day via diet, drug week −1 (start of treatment)
# [5] = female rats, 200 mg/kg/day via diet, drug week 6
# [6] = female rats, 200 mg/kg/day via diet, drug week 13
# [7] = female rats, 200 mg/kg/day via diet, drug week −1 (start of treatment)
# [8] = female rats, 600 mg/kg/day via diet, drug week 6
# [9] = female rats, 600 mg/kg/day via diet, drug week 13
# [10] = female rats, 600 mg/kg/day via diet, drug week −1 (start of treatment)
# [11] = male rats, 100 mg/kg/day via diet, drug week 6
# [12] = male rats, 100 mg/kg/day via diet, drug week 13
# [13] = male rats, 100 mg/kg/day via diet, drug week −1 (start of treatment)
# [14] = male rats, 200 mg/kg/day via diet, drug week 6
# [15] = male rats, 200 mg/kg/day via diet, drug week 13
# [16] = male rats, 200 mg/kg/day via diet, drug week −1 (start of treatment)
# [17] = male rats, 600 mg/kg/day via diet, drug week 6
# [18] = male rats, 600 mg/kg/day via diet, drug week 13
# [19] = male rats, 600 mg/kg/day via diet, drug week −1 (start of treatment)
structure (smiles),measurement,setting,value
"O=c1[nH]c2ccccc2n1CCN1CCN(c2cccc(C(F)(F)F)c2)CC1 [BIMT 17 BS, 1-[2-(4-(3-trifluoromethyl-phenyl)piperazin-1-yl)ethyl]-2,3-dihydro-1H-benzimidazol-2-one]",Mean absolute body weight,[1]; [2],213.6 grams
same,percent change to controls (body weight),[1]; [2],−6.8%
same,Mean absolute body weight,[1]; [3],234.5 grams
same,percent change to controls (body weight),[1]; [3],−10.3%
same,Mean absolute body weight,[1]; [4],141.3 grams
same,percent change to controls (body weight),[1]; [4],+0.1%
same,Mean absolute body weight,[1]; [5],209.7 grams
same,percent change to controls (body weight),[1]; [5],−8.5%
same,Mean absolute body weight,[1]; [6],234.9 grams
same,percent change to controls (body weight),[1]; [6],−10.2%
same,Mean absolute body weight,[1]; [7],142.2 grams
same,percent change to controls (body weight),[1]; [7],+0.7%
same,Mean absolute body weight,[1]; [8],196.0 grams
same,percent change to controls (body weight),[1]; [8],−14.4%
same,Mean absolute body weight,[1]; [9],225.8 grams
same,percent change to controls (body weight),[1]; [9],−13.7%
same,Mean absolute body weight,[1]; [10],140.7 grams
same,percent change to controls (body weight),[1]; [10],−0.4%
same,difference compared to controls at study end (body weight decrease),"[1]; females, 100 mg/kg/day",10%
same,difference compared to controls at study end (body weight decrease),"[1]; females, 200 mg/kg/day",10%
same,difference compared to controls at study end (body weight decrease),"[1]; females, 600 mg/kg/day",14%
same,Mean absolute body weight,[1]; [11],340.9 grams
same,percent change to controls (body weight),[1]; [11],−7.4%
same,Mean absolute body weight,[1]; [12],397.4 grams
same,percent change to controls (body weight),[1]; [12],−9.8%
same,Mean absolute body weight,[1]; [13],188.1 grams
same,percent change to controls (body weight),[1]; [13],−1.7%
same,Mean absolute body weight,[1]; [14],340.4 grams
same,percent change to controls (body weight),[1]; [14],−7.5%
same,Mean absolute body weight,[1]; [15],400.9 grams
same,percent change to controls (body weight),[1]; [15],−9.0%
same,Mean absolute body weight,[1]; [16],189.3 grams
same,percent change to controls (body weight),[1]; [16],−1.0%
same,Mean absolute body weight,[1]; [17],284.8 grams
same,percent change to controls (body weight),[1]; [17],−22.7%
same,Mean absolute body weight,[1]; [18],333.2 grams
same,percent change to controls (body weight),[1]; [18],−24.3%
same,Mean absolute body weight,[1]; [19],186.8 grams
same,percent change to controls (body weight),[1]; [19],−2.4%
same,difference compared to controls at study end (body weight decrease),"[1]; males, 100 mg/kg/day",10%
same,difference compared to controls at study end (body weight decrease),"[1]; males, 200 mg/kg/day",9%
same,difference compared to controls at study end (body weight decrease),"[1]; males, 600 mg/kg/day",24%
same,body weight gain of males and females,"[1]; rats, 100, 200 and 600 mg/kg/day via diet, in almost all drug weeks, versus controls",significantly decreased
same,affinity for the 5-HT1A receptor,5-HT1A receptor,shows affinity
same,affinity for the 5-HT2-receptor family,5-HT2-receptor family,shows affinity
